In patent US20030083227A1, “Novel combination therapy to treat glaucoma” (priority 1999, published 2003):

Experiments:
[1] = system: mouse IOP; assay: Mouse IOP measured with the Servo-Null Micropipette System (SNMS); assay type: in vivo; conditions: for ΔIOP after base (1st drug): sequential study; for minimally effective droplet concentration: lowering of mouse IOP; for ΔIOP (after 1st drug): vs previous period; for effect on IOP: alone
Description: Black Swiss outbred mice of mixed sex, 7 to 9 weeks old and approximately 30 g in weight, were obtained from Taconic, Inc. (Germantown, N.Y.). Animals were housed in accordance with National Institutes of Health recommendations, maintained under a 12-hour light-dark illumination cycle, and allowed unrestricted access to food and water. IOP measurements were performed at the same time of day (2-6 PM) to minimize diurnal effects on IOP. All procedures conformed to the ARVO Statement for the Use of Animals in Ophthalmic and Vision Research.
Before all IOP measurements, mice received general anesthesia in the form of intraperitoneal ketamine (250 mg/kg), supplemented by topical proparacaine HCl (0.5%; Allergan, Hormigueros, Puerto Rico). After reaching a stable plane of anesthesia confirmed by absent response to foot pinch, the mice were secured in a surgical stereotaxic device (David Kopf Instruments, Tujunga, Calif.), with the head positioned to avoid any pressure on the animal that could affect IOP. A heating pad at 37° C. (Delta Phase Isothermal Pad, Braintree Scientific, Braintree, Mass.) maintained body temperature. Topical proparacaine supplemented general anesthesia, and corneal dehydration was prevented by topical normal saline (309 mOsm), as necessary. The ground electrode was placed on the conjunctiva of the same or the contralateral eye, carefully avoiding any pressure on the eye.
IOP was measured with the Servo-Null Micropipette System (SNMS), an electrophysiologic, nonmanometric method of measuring pressure, previously adapted and validated for measuring IOP in the mouse (Avila et al., 2001A). The exploring, 5-μm micropipette was filled with 3 M KCl solution to ensure that the resistance of the fluid within the tip was much lower than that of the extracellular fluid. The resistance to electrical flow through the micropipette was continuously monitored and was dominated by the electrical resistance at the tip.
After entry of the tip into the anterior chamber, the step change in hydrostatic pressure forced aqueous humor into the micropipette, displacing the low-resistance 3-M KCl filling solution from the tip back toward the shank. The resultant increase in electrical resistance generated a signal to a vacuum-pressure pump that produced an equal counter-pressure that maintained the position of the aqueous humor-KCl interface at the tip of the micropipette, and thus sustains the original electrical resistance. This counter-pressure equaled the hydrostatic pressure outside the micropipette tip, in this instance the IOP. […] Before every measurement, the system was calibrated externally against a mercury manometer in the range from 0 to 50 mm Hg at 5- to 10-mm Hg intervals.
The micropipettes were fabricated from borosilicate glass (1.5 mm outer diameter, 0.84 mm inner diameter, WPI) with a puller (Sutter Instruments, San Rafael, Calif.). The tips were beveled to an outer diameter of 5 μm and a 45° angle with a micropipette beveler (Sutter).
Using the SNMS as described above, the micropipette tip was next placed in the drop of proparacaine on the cornea overlying the pupil of the subject, and the output reading from the SNMS was adjusted to zero. The micropipette was then advanced across the cornea (at 20-30° to the optical axis) into the anterior chamber by a cell-penetration positioning system (model LSS 21200; Burleigh Instruments, Inc., Fishers, N.Y.) and a piezoelectric step driver (model PZ100; Burleigh). IOP was monitored after positioning the micropipette tip in the aqueous humor. The baseline IOP in the present study was 14.2±0.4 mm Hg (n=113). In measuring drug-induced changes in IOP, each animal served as its own series control. All pressures after drug application were compared with those just before the drug was added.
To determine an individual IOP reading, the mean±SEM was calculated during a 3- to 5-minute recording period. Numbers of experiments or eyes are indicated by the symbol n. […]

[2] = system: PE cells; assay: Regulatory volume increase (post-RVD RVI) of PE cells, volumetric measurements; assay type: cell-based, bovine
Description: Volumetric measurements were also performed to confirm that these antiports could function in parallel to transfer solution from the extracellular space into the cells.
Since paired Na^+/H^+ and Cl^−/HCO3^− exchangers were known to contribute to the regulatory volume increase (RVI) in many other cells (Hoffmann, Curr Top Membr Transp 30:125-180 (1987)), the regulatory volume increase in the PE cells was examined. However, the secondary RVI was not observed in the PE cells at room temperature. Consequently, the volumetric experiments were conducted at 34-37° C.
The precise time course of the baseline RVI was variable, so that the data of some experiments were better fit to an exponential expression, and others to a linear expression (filled circles, FIG. 2C). […] Secondary RVI was inhibited either by blocking the Na^+/H^+ antiport with 10 μM dimethylamiloride, or by omitting CO2/HCO3^− from the external solution.
Inhibitors were added at the same time that isotonicity was restored (t=24 min).

[3] = system: mouse IOP; conditions: cited from earlier work
[4] = system: PE cells; assay: Potency of Na+/H+ antiport inhibitors applied to PE cells; assay type: cell-based; conditions: amiloride : EIPA
Description: Carbonic anhydrase inhibition reduces the rate of production of H^+ and HCO3^−, which in turn must slow the rate of delivery of H^+ and HCO3^− to all cell sites, including the antiports. […] To reach a 10-mM concentration, it was necessary to solubilize the amiloride in 30% DMSO. […] Thus, at a concentration 10 times higher than EIPA's minimal effective concentration, amiloride had no effect, consistent with the known ratio of the potency of these inhibitors (3.9:0.07 μM, or ˜56) when applied to PE cells.

[5] = system: PE cells; conditions: applied to PE cells; cited from earlier work
[6] = system: NHE-1; conditions: cited from earlier work
[7] = 1st drug 1 mM topical, vs baseline
[8] = single drug, topical 10-μL droplet, 100 μM
[9] = single drug, topical 10-μL droplet, 3 mM
[10] = single drug, topical 10-μL droplet, 1 mM

CN(C)c1nc(N)c(C(=O)N=C(N)N)nc1Cl [DMA, dimethylamiloride]
ΔIOP after base (1st drug) [1, 7]: −4.0 ± 0.8 mm Hg
ΔIOP [1, 8]: +0.9 ± 0.9 mm Hg
ΔIOP [1, 9]: −5.0 ± 0.7 mm Hg
reduction of IOP of the treated eye ([1]; single drug, topical, 1 mM): 3.8±0.5 mm Hg
lowering of IOP ([1]; single drug, topical, 3 mM): 5.0±0.7 mm Hg
minimally effective droplet concentration ([1]; topical): 1 mM
effect on secondary RVI ([2]; 10 μM, 34-37° C.): inhibited

CCN[C@H]1C[C@H](C)S(=O)(=O)c2sc(S(N)(=O)=O)cc21 [Dorzolamide]
ΔIOP after base (1st drug) ([1]; 1st drug 55.4 mM (200 μg), series followed by BIIB, n=7): −3.5 ± 0.9 mm Hg
ΔIOP after base (1st drug) ([1]; 1st drug 55.5 mM (200 μg), series followed by bumetanide, n=4): −2.0 ± 0.4 mm Hg
ΔIOP ([1]; single drug, topical 10-μL droplet, 55.4 mM (200 μg)): −2.9 ± 0.6 mm Hg
ΔIOP ([1]; single drug, topical 10-μL droplet, 55.4 mM (200 μg), listed as dorzolamide): reduces IOP

CCCCNc1cc(C(=O)O)cc(S(N)(=O)=O)c1Oc1ccccc1 [Bumetanide]
change in IOP ([1]; 10 mM alone, 4 mice): −1.0±1.1 mm Hg
reduction of IOP ([1]; 10 mM bumetanide after topical ethylisopropyl-amiloride, N=6): 4.0±0.6 mm Hg
ΔIOP (after 1st drug) ([1]; 2nd drug 10 mM (36.4 μg) after 1 mM BIIB): −3.9 ± 0.9 mm Hg
ΔIOP (after 1st drug) ([1]; 2nd drug 10 mM (36.4 μg) after 1 mM DMA): −3.8 ± 0.7 mm Hg
ΔIOP (after 1st drug) ([1]; 2nd drug 10 mM (36.4 μg) after 1 mM EIPA): −4.0 ± 0.6 mm Hg
ΔIOP (after 1st drug) ([1]; 2nd drug 10 mM (36.4 μg) after 55.5 mM dorzolamide): −3.9 ± 1.0 mm Hg
effect on IOP ([1]; N=8, 10 uM-10 mM concentrations in topical drops): had no significant effect on IOP
effect on IOP ([1]; droplet concentrations of 0.1 to 10 mM (364 ng to 36.4 μg)): had no significant effect on IOP
ΔIOP [1, 8]: −0.8 ± 0.7 mm Hg
ΔIOP [1, 10]: −0.7 ± 1.6 mm Hg
ΔIOP ([1]; single drug, topical 10-μL droplet, 10 mM): −1.2 ± 0.6 mm Hg
effect on RVI ([2]; 10 μM, added when isotonicity restored, N=9): did not inhibit the RVI
effect on RVI ([2]; alone, in the nominal absence of CO2/HCO3−, P<0.01): substantially inhibited the RVI

CC(=O)Nc1nnc(S(N)(=O)=O)s1 [acetazolamide]
lowering of mouse IOP ([3]; intraperitoneal): 11.9±1.3 mm Hg

N=C(N)NC(=O)c1nc(Cl)c(N)nc1N [amiloride]
ΔIOP ([1]; 10 mM in 30% DMSO, after pretreatment with vehicle containing 30% DMSO, n=4): 1.0±0.7 mm Hg
ΔIOP [1, 10]: no significant effect on mouse IOP
ratio of the potency of these inhibitors [4]: ~56
potency [5]: 3900 nM
potency at NHE-1 antiports lower than the amiloride analogues DMA and EIPA ([6]; Counillon et al., 2000): 1 to 2 orders of magnitude

Nc1ncnc2c1ncn2[C@@H]1O[C@H](CO)[C@@H](O)[C@H]1O [adenosine]
effect on IOP in the contralateral eye ([3]; 100 μM, unilateral topical application): does not alter

CCN(c1nc(N)c(C(=O)NC(=N)N)nc1Cl)C(C)C [EIPA, ethylisopropylamiloride]
ΔIOP after base (1st drug) [1, 7]: −2.4 ± 0.6 mm Hg
ΔIOP [1, 8]: +0.8 ± 0.2 mm Hg
ΔIOP [1, 10]: −2.6 ± 0.5 mm Hg
ΔIOP [1, 9]: −4.1 ± 1.0 mm Hg
lowering of IOP ([1]; single drug, topical, 3 mM): 4.1±1.0 mm Hg
minimally effective droplet concentration ([1]; topical): 1 mM
potency [5]: 70 nM
IC50 ([6]; Scholz et al. 1995): 50 nM

O=S(=O)(O)c1cc(N=C=S)ccc1C=Cc1ccc(N=C=S)cc1S(=O)(=O)O [DIDS, 4,4′-diisothiocyanatostilbene-2,2′-disulfonic acid]
effect on RVI ([2]; 500 μM, added when isotonicity restored, N=3): did not inhibit the RVI
